# ± gives the expanded uncertainty stated by the source.
# Assay: molar heat capacity at constant volume
# Conditions: Fluid (supercritical or subcritical phases), Vacuum adiabatic calorimetry
structure (smiles),measurement,setting,value
CCC(C)O (stereo unspecified) [butan-2-ol],molar heat capacity at constant volume,"533.36 K, Mass density=301.19 kg/m3",394.33 ± 3.7 J/K/mol
same,molar heat capacity at constant volume,"533.36 K, Mass density=347.06 kg/m3",375.06 ± 3.7 J/K/mol
same,molar heat capacity at constant volume,"533.36 K, Mass density=474.07 kg/m3",196.42 ± 2.2 J/K/mol
same,molar heat capacity at constant volume,"533.54 K, Mass density=184.89 kg/m3",510.48 ± 5.7 J/K/mol
same,molar heat capacity at constant volume,"533.54 K, Mass density=198.25 kg/m3",497.8 ± 5 J/K/mol
same,molar heat capacity at constant volume,"533.54 K, Mass density=245.67 kg/m3",452.07 ± 4.5 J/K/mol
same,molar heat capacity at constant volume,"533.54 K, Mass density=284.93 kg/m3",412.49 ± 4.2 J/K/mol
same,molar heat capacity at constant volume,"533.54 K, Mass density=286.65 kg/m3",422.42 ± 4.2 J/K/mol
same,molar heat capacity at constant volume,"533.54 K, Mass density=301.19 kg/m3",399.52 ± 3.7 J/K/mol
same,molar heat capacity at constant volume,"533.54 K, Mass density=347.06 kg/m3",375.06 ± 3.7 J/K/mol
same,molar heat capacity at constant volume,"533.54 K, Mass density=474.07 kg/m3",196.42 ± 2.2 J/K/mol
same,molar heat capacity at constant volume,"533.68 K, Mass density=286.65 kg/m3",420.64 ± 4.2 J/K/mol
same,molar heat capacity at constant volume,"533.72 K, Mass density=184.89 kg/m3",467.11 ± 5.4 J/K/mol
same,molar heat capacity at constant volume,"533.72 K, Mass density=198.25 kg/m3",506.55 ± 5.1 J/K/mol
same,molar heat capacity at constant volume,"533.72 K, Mass density=245.67 kg/m3",456.07 ± 4.6 J/K/mol
same,molar heat capacity at constant volume,"533.72 K, Mass density=284.93 kg/m3",412.86 ± 4.2 J/K/mol
same,molar heat capacity at constant volume,"533.72 K, Mass density=301.19 kg/m3",403.96 ± 4.4 J/K/mol
same,molar heat capacity at constant volume,"533.72 K, Mass density=347.06 kg/m3",377.28 ± 3.7 J/K/mol
same,molar heat capacity at constant volume,"533.74 K, Mass density=184.89 kg/m3",332.58 ± 4.3 J/K/mol
same,molar heat capacity at constant volume,"533.76 K, Mass density=184.89 kg/m3",294.56 ± 4 J/K/mol
same,molar heat capacity at constant volume,"533.78 K, Mass density=184.89 kg/m3",303.68 ± 4.1 J/K/mol
same,molar heat capacity at constant volume,"533.8 K, Mass density=184.89 kg/m3",307.31 ± 4.1 J/K/mol
same,molar heat capacity at constant volume,"533.81 K, Mass density=184.89 kg/m3",283.59 ± 3.9 J/K/mol
same,molar heat capacity at constant volume,"533.91 K, Mass density=198.25 kg/m3",508.47 ± 5.3 J/K/mol
same,molar heat capacity at constant volume,"533.91 K, Mass density=245.67 kg/m3",462 ± 4.7 J/K/mol
same,molar heat capacity at constant volume,"533.91 K, Mass density=284.93 kg/m3",414.71 ± 4.2 J/K/mol
same,molar heat capacity at constant volume,"533.91 K, Mass density=286.65 kg/m3",429.46 ± 4.3 J/K/mol
same,molar heat capacity at constant volume,"533.91 K, Mass density=301.19 kg/m3",408.41 ± 4.4 J/K/mol
same,molar heat capacity at constant volume,"533.91 K, Mass density=347.06 kg/m3",375.06 ± 3.7 J/K/mol
same,molar heat capacity at constant volume,"534.09 K, Mass density=198.25 kg/m3",520.78 ± 5.5 J/K/mol
same,molar heat capacity at constant volume,"534.09 K, Mass density=245.67 kg/m3",460.22 ± 4.7 J/K/mol
same,molar heat capacity at constant volume,"534.09 K, Mass density=279.19 kg/m3",425.38 ± 4.3 J/K/mol
same,molar heat capacity at constant volume,"534.09 K, Mass density=284.93 kg/m3",420.86 ± 4.2 J/K/mol
same,molar heat capacity at constant volume,"534.09 K, Mass density=301.19 kg/m3",412.12 ± 4.4 J/K/mol
same,molar heat capacity at constant volume,"534.09 K, Mass density=347.06 kg/m3",382.47 ± 4.4 J/K/mol
same,molar heat capacity at constant volume,"534.27 K, Mass density=198.25 kg/m3",538.57 ± 6.2 J/K/mol
same,molar heat capacity at constant volume,"534.27 K, Mass density=245.67 kg/m3",465.85 ± 4.7 J/K/mol
same,molar heat capacity at constant volume,"534.27 K, Mass density=279.19 kg/m3",430.42 ± 4.4 J/K/mol
same,molar heat capacity at constant volume,"534.27 K, Mass density=284.93 kg/m3",420.42 ± 4.2 J/K/mol
same,molar heat capacity at constant volume,"534.27 K, Mass density=286.65 kg/m3",436.5 ± 4.4 J/K/mol
same,molar heat capacity at constant volume,"534.27 K, Mass density=347.06 kg/m3",387.66 ± 4.4 J/K/mol
same,molar heat capacity at constant volume,"534.46 K, Mass density=198.25 kg/m3",527.82 ± 6 J/K/mol
same,molar heat capacity at constant volume,"534.46 K, Mass density=245.67 kg/m3",472.82 ± 4.8 J/K/mol
same,molar heat capacity at constant volume,"534.46 K, Mass density=279.19 kg/m3",435.09 ± 4.4 J/K/mol
same,molar heat capacity at constant volume,"534.46 K, Mass density=284.93 kg/m3",425.75 ± 4.3 J/K/mol
same,molar heat capacity at constant volume,"534.46 K, Mass density=286.65 kg/m3",439.47 ± 4.4 J/K/mol
same,molar heat capacity at constant volume,"534.46 K, Mass density=301.19 kg/m3",418.79 ± 4.4 J/K/mol
same,molar heat capacity at constant volume,"534.46 K, Mass density=347.06 kg/m3",400.26 ± 4.4 J/K/mol
same,molar heat capacity at constant volume,"534.64 K, Mass density=184.89 kg/m3",279.36 ± 2.8 J/K/mol
same,molar heat capacity at constant volume,"534.64 K, Mass density=198.25 kg/m3",354.23 ± 4.5 J/K/mol
same,molar heat capacity at constant volume,"534.64 K, Mass density=245.67 kg/m3",484.53 ± 4.9 J/K/mol
same,molar heat capacity at constant volume,"534.64 K, Mass density=276.45 kg/m3",433.39 ± 4.4 J/K/mol
same,molar heat capacity at constant volume,"534.64 K, Mass density=279.19 kg/m3",437.91 ± 4.4 J/K/mol
same,molar heat capacity at constant volume,"534.64 K, Mass density=284.93 kg/m3",426.57 ± 4.3 J/K/mol
same,molar heat capacity at constant volume,"534.64 K, Mass density=301.19 kg/m3",421.75 ± 4.4 J/K/mol
same,molar heat capacity at constant volume,"534.64 K, Mass density=347.06 kg/m3",353.56 ± 3.7 J/K/mol
same,molar heat capacity at constant volume,"534.64 K, Mass density=403.55 kg/m3",223.85 ± 2.2 J/K/mol
same,molar heat capacity at constant volume,"534.82 K, Mass density=198.25 kg/m3",329.47 ± 4.2 J/K/mol
same,molar heat capacity at constant volume,"534.82 K, Mass density=245.67 kg/m3",491.43 ± 5 J/K/mol
same,molar heat capacity at constant volume,"534.82 K, Mass density=276.45 kg/m3",435.91 ± 4.5 J/K/mol
same,molar heat capacity at constant volume,"534.82 K, Mass density=279.19 kg/m3",441.54 ± 4.5 J/K/mol
same,molar heat capacity at constant volume,"534.82 K, Mass density=284.93 kg/m3",430.13 ± 4.4 J/K/mol
same,molar heat capacity at constant volume,"534.82 K, Mass density=301.19 kg/m3",429.16 ± 4.4 J/K/mol
same,molar heat capacity at constant volume,"534.82 K, Mass density=347.06 kg/m3",246.08 ± 3 J/K/mol
same,molar heat capacity at constant volume,"534.82 K, Mass density=403.55 kg/m3",223.11 ± 2.2 J/K/mol
same,molar heat capacity at constant volume,"535.01 K, Mass density=198.25 kg/m3",313.31 ± 4.7 J/K/mol
same,molar heat capacity at constant volume,"535.01 K, Mass density=245.67 kg/m3",498.39 ± 5.2 J/K/mol
same,molar heat capacity at constant volume,"535.01 K, Mass density=276.45 kg/m3",443.47 ± 4.8 J/K/mol
same,molar heat capacity at constant volume,"535.01 K, Mass density=284.93 kg/m3",435.02 ± 4.4 J/K/mol
same,molar heat capacity at constant volume,"535.01 K, Mass density=301.19 kg/m3",431.39 ± 4.4 J/K/mol
same,molar heat capacity at constant volume,"535.01 K, Mass density=347.06 kg/m3",242.38 ± 3 J/K/mol
same,molar heat capacity at constant volume,"535.01 K, Mass density=403.55 kg/m3",225.33 ± 2.2 J/K/mol
same,molar heat capacity at constant volume,"535.19 K, Mass density=198.25 kg/m3",319.91 ± 4.7 J/K/mol
same,molar heat capacity at constant volume,"535.19 K, Mass density=245.67 kg/m3",508.62 ± 5.1 J/K/mol
same,molar heat capacity at constant volume,"535.19 K, Mass density=276.45 kg/m3",453.85 ± 5.3 J/K/mol
same,molar heat capacity at constant volume,"535.19 K, Mass density=279.19 kg/m3",457.11 ± 4.7 J/K/mol
same,molar heat capacity at constant volume,"535.19 K, Mass density=284.93 kg/m3",440.21 ± 4.6 J/K/mol
same,molar heat capacity at constant volume,"535.19 K, Mass density=301.19 kg/m3",440.28 ± 4.4 J/K/mol
same,molar heat capacity at constant volume,"535.19 K, Mass density=347.06 kg/m3",243.12 ± 3 J/K/mol
same,molar heat capacity at constant volume,"535.19 K, Mass density=403.55 kg/m3",223.11 ± 2.2 J/K/mol
same,molar heat capacity at constant volume,"535.37 K, Mass density=184.89 kg/m3",286.33 ± 2.9 J/K/mol
same,molar heat capacity at constant volume,"535.37 K, Mass density=198.25 kg/m3",301.3 ± 3.2 J/K/mol
same,molar heat capacity at constant volume,"535.37 K, Mass density=245.67 kg/m3",516.03 ± 5.6 J/K/mol
same,molar heat capacity at constant volume,"535.37 K, Mass density=276.45 kg/m3",460.59 ± 4.8 J/K/mol
same,molar heat capacity at constant volume,"535.37 K, Mass density=279.19 kg/m3",465.85 ± 4.7 J/K/mol
same,molar heat capacity at constant volume,"535.37 K, Mass density=284.93 kg/m3",441.02 ± 4.8 J/K/mol
same,molar heat capacity at constant volume,"535.37 K, Mass density=286.65 kg/m3",467.56 ± 4.9 J/K/mol
same,molar heat capacity at constant volume,"535.37 K, Mass density=301.19 kg/m3",445.47 ± 5.2 J/K/mol
same,molar heat capacity at constant volume,"535.37 K, Mass density=403.55 kg/m3",219.4 ± 2.2 J/K/mol
same,molar heat capacity at constant volume,"535.55 K, Mass density=184.89 kg/m3",286.55 ± 2.9 J/K/mol
same,molar heat capacity at constant volume,"535.55 K, Mass density=245.67 kg/m3",535.08 ± 5.8 J/K/mol
same,molar heat capacity at constant volume,"535.55 K, Mass density=276.45 kg/m3",474.75 ± 5 J/K/mol
same,molar heat capacity at constant volume,"535.55 K, Mass density=279.19 kg/m3",472.08 ± 5.1 J/K/mol
same,molar heat capacity at constant volume,"535.55 K, Mass density=284.93 kg/m3",454.96 ± 5 J/K/mol
same,molar heat capacity at constant volume,"535.55 K, Mass density=286.65 kg/m3",474.38 ± 4.9 J/K/mol
same,molar heat capacity at constant volume,"535.55 K, Mass density=301.19 kg/m3",458.07 ± 5.2 J/K/mol
same,molar heat capacity at constant volume,"535.55 K, Mass density=347.06 kg/m3",243.12 ± 2.2 J/K/mol
same,molar heat capacity at constant volume,"535.55 K, Mass density=403.55 kg/m3",220.88 ± 2.2 J/K/mol
same,molar heat capacity at constant volume,"535.74 K, Mass density=198.25 kg/m3",286.33 ± 3 J/K/mol
same,molar heat capacity at constant volume,"535.74 K, Mass density=245.67 kg/m3",563.92 ± 6.2 J/K/mol
same,molar heat capacity at constant volume,"535.74 K, Mass density=276.45 kg/m3",489.72 ± 5.3 J/K/mol
same,molar heat capacity at constant volume,"535.74 K, Mass density=279.19 kg/m3",488.09 ± 5.1 J/K/mol
same,molar heat capacity at constant volume,"535.74 K, Mass density=284.93 kg/m3",470.52 ± 5.2 J/K/mol
same,molar heat capacity at constant volume,"535.74 K, Mass density=286.65 kg/m3",487.57 ± 6.7 J/K/mol
same,molar heat capacity at constant volume,"535.74 K, Mass density=301.19 kg/m3",477.34 ± 5.2 J/K/mol
same,molar heat capacity at constant volume,"535.74 K, Mass density=347.06 kg/m3",249.05 ± 2.2 J/K/mol
